Laboratory results from PMC11336009 (GeroScience, 2024).
“Also recorded” adds a separate entry of the source.

How the values were obtained:
[1] = tested on: 6-OHDA unilateral medial forebrain bundle lesioned rat; assay: Methamphetamine-induced rotation in unilateral 6-OHDA lesioned rats; type: in vivo; settings: for Meth-induced ipsilateral rotation vs vehicle: early treatment 10 mg/kg daily p.o. from 7 days before lesioning, meth 2.5 mg/kg s.c. on days 20 and 30
[2] = tested on: 6-OHDA unilateral medial forebrain bundle lesioned rat; assay: Tyrosine hydroxylase (TH) immunoreactivity in striatum and SNc of 6-OHDA lesioned rats; type: in vivo
Procedure: treatment was initiated either prior to or after 6-OHDA lesioning (early and delayed treatment, respectively) as follows. (1) Early treatment: […] An estimated dose for a 250-g rat under this treatment was 10 mg/kg/day. (2) Delayed treatment: […] An estimated, clinically relevant, dose for a 250 g rat under this treatment was thus 30 mg/kg/day. Specifically for drug admixture into diet, drug was solubilized in 100% ETOH that was then added to the 16.2 g of food chow. Thereafter, the ETOH was evaporated off. […] Animals were weighed twice weekly and the amount of drug added to the chow was modified accordingly to maintain the daily required dose. […] Specifically, the 10 mg/kg oral daily drug dose in our rat studies is equivalent to the routine human daily oral dose (100 mg in a 65 kg human) of these […] used in T2DM, and the 30 mg/kg rat dose is equivalent to a threefold higher dose that is well-tolerated in humans. Following the exact same protocol described in Yin et al., 2012 [34] and Li et al., 2009 [35], anesthetized rats were injected i.c.v. with PF-00734,200 (15.4 nmole in 20 μL sterile physiological saline (n = 6)) or vehicle (sterile physiological saline, 20 μL (n = 8)) using a 25 μL Hamilton syringe at 10 min prior to 6-OHDA lesioning (Supplemental Fig. 2). The coordinates for the i.c.v. injection were 0.8 mm posterior to bregma, 1.2 mm lateral (Left) to midline, and 3.7 mm ventral to the dural surface. The rate of infusion (4 μL/min) was adjusted by a microprocessor-controlled injector mounted to the stereotaxic frame (UMP4; World Precision Instruments, Sarasota, FL, USA). The needle was slowly removed after 2 min upon completion of the injection. Following the exact same protocol described in Yin et al., 2012 [34] and Harvey et al. 2004 [36], anesthetized rats were subjected to a 6-OHDA unilateral medial forebrain bundle lesion. Briefly, 6-OHDA (2.27 μg/μL × 5 μL in 0.9% NaCl containing 0.2 mg/ml ascorbic acid) was unilaterally injected into the medial forebrain bundle (-4.4 mm AP, 1.2 mm ML relative to bregma and 8.4 mm below skull) over 4 min through a syringe pump (Micro 4, WPI, Sarasota, FL), as approved under National Health Research Institutes, Taiwan, Protocol # 102,068-A; 102,102-A. Following this procedure, all animals were monitored daily for adverse signs of health for 1 week (in line with the approved protocols). BrdU and TH localization was determined by immunohistochemistry. Serial sections of the entire brain were cut at 30 μm thickness by cryostat. One series from every sixth section was stained for TH. To control for staining variability, specimens from all experimental groups were included in every batch and reacted together in a net well tray under the same conditions. Sections were rinsed in 0.1 M phosphate buffer (PB), blocked with 4% bovine serum albumin (BSA) and 0.3% Triton x-100 in 0.1 M PB. Sections were then incubated in a primary antibody solution mouse monoclonal anti-TH diluted in 4% BSA and 0.3% Triton x-100 in 0.1 M PB, concentration 1:100 (Chemicon, Temecula, CA) and polyclonal anti-BrdU (1:500, Millipore, MA, USA) for 17-19 h at 4 °C. Sections were then rinsed in 0.1 M PB and incubated in secondary antibodies for 1 h, followed by incubation for 1 h with avidin-biotin-horseradish peroxidase complex. Thereafter, sections were mounted on slides, and coverslipped. TH and BrdU immunoreactivity was examined under a fluorescent microscope. Sections were incubated without primary antibody as a control and observers were blinded as to treatment groups. TH immunoreactivity and BrdU cell number in striatum were averaged from 3 brain sections with visible anterior commissure in each animal. TH immunoreactivity in SNc was measured every 6th Sect. (30 μm per each section) throughout the extent of midbrain. […] volume was analyzed using Cavalieri's method.

[3] = delayed treatment 30 mg/kg daily p.o. from day 7 to 45, rotation on days 20, 30 and 40
[4] = delayed treatment 30 mg/kg daily p.o. from day 7, day 21
[5] = early treatment 10 mg/kg daily p.o.
[6] = early treatment 10 mg/kg daily p.o., normalized to non-lesioned side, day 35

| Compound | Meth-induced rotation vs vehicle [1, 3] | Meth-induced rotational behavior vs vehicle ([1]; delayed treatment, low dose 10 mg/kg daily p.o. from day 7) | Meth-induced ipsilateral rotation vs vehicle [1] | Meth-induced rotation vs vehicle ([1]; i.c.v. 15.4 nmole 10 min prior to 6-OHDA lesioning, evaluated on day 30) | TH cell density in the lesioned SNc vs vehicle [2, 4] | TH pixel density in the lesioned striatum vs vehicle [2, 4] | TH immunoreactivity in the lesioned side SNc vs vehicle [2, 5] | TH immunoreactivity in the non-lesioned side SNc [2, 5] | TH pixel density in the lesioned striatum vs vehicle [2, 6] | TH immunohistochemistry in striatum and SNc vs vehicle ([2]; i.c.v. 15.4 nmole 10 min prior to 6-OHDA lesioning) |
| --- | --- | --- | --- | --- | --- | --- | --- | --- | --- | --- |
| O=C([C@@H]1C[C@H](N2CCN(c3ncccn3)CC2)CN1)N1CCC(F)(F)C1 [PF-00734,200, Gosogliptin] | significantly attenuated | did not alter rotational behavior | significantly reduced | no different from similarly vehicle-treated animals | significantly increased | a trend, but not a statistically significant | significantly increased | did not alter | significantly increased | lack of neuroprotection; also recorded: no different from similarly vehicle-treated animals |
| N[C@@H](CC(=O)N1CCn2c(nnc2C(F)(F)F)C1)Cc1cc(F)c(F)cc1F [Sitagliptin] | significantly attenuated | – | small but significant difference | – | significantly increased | significantly increased | significantly increased | did not alter | significantly increased | – |
